ChEMBL document CHEMBL1201862, “PubChem BioAssay data set” (2004)
Activity calls are given as the source filed them. Cut-off read from the data, not from the text of the source, for most assays here: actives have a measured EC50 and inactives only a lower limit.

Assays:
[1] = target: T1, Heat shock factor protein 1 (Mus musculus, UniProt P38532); assay: inhibition of MG132-induced HSE-luciferase signal, confirmation, cell-based, NIH3T3, luminescence, dose retest (AID 2382); type: functional;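 note: NIH3T3 fibroblasts with HSF1-driven luciferase reporter stressed by proteasome inhibitor MG132; luminescence from HSF1-driven luciferase expression after 8 hours of MG132 stress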
T1 sequence (P38532 whole entry): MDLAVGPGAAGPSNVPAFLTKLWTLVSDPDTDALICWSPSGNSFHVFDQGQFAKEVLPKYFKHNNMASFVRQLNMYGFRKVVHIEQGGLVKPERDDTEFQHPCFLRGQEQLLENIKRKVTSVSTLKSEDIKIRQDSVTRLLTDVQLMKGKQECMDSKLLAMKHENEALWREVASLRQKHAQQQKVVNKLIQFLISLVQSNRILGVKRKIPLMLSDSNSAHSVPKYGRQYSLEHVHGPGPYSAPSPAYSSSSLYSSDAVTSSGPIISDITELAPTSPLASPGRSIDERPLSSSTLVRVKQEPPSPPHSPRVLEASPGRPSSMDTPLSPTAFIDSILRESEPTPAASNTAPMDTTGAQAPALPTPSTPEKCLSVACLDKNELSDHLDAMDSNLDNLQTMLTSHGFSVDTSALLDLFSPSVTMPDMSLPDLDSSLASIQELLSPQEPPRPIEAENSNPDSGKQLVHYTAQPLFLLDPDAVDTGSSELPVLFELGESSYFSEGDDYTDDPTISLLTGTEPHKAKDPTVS

[2] = target: T1, Heat shock factor protein 1; assay: HSF1 potentiators in luciferase reporter cells, confirmation, cell-based, NIH3T3, luminescence, dose retest (AID 435004); type: functional;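 note: stress induced by proteasome inhibitor MG132 added 30 min after compound; luciferase reporter driven by HSF1 response element in NIH3T3 cells; actives raise luminescence as potentiators of the MG132 stress response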
[3] = Luminescence Cell-Based Dose Response HTS to Identify Activators of Luciferase Translation or Activity in H4 […] Cells. [Related pubchem assays: 1829 (Project Summary), 1814 (Primary HTS)]; type: functional
H4 = assay: Luminescence Cell-Based Dose Response HTS to Identify Activators of 5'UTR Stem-Loop Driven Prion Protein mRNA Translation in H4 Neuroglioblastoma Cells. [Related pubchem assays: 1829 (Project Summary), 1814 (Primary HTS)]; type: functional; settings: Homo sapiens
[4] = NIH-3T3 fibroblast cytotoxicity, dose response, cytotoxicity control, cell-based, fluorescence, Alamar Blue, secondary assay (AID 2327); type: functional;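 note: NIH-3T3 mouse fibroblasts cultured with fluconazole at 8 µg/mL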
[5] = C. albicans growth with fluconazole, confirmation, fluorescence, retest (AID 2467); type: functional, cell-based
[6] = target: FAD-linked sulfhydryl oxidase ALR (Homo sapiens, UniProt P55789); assay: inhibitors of human ALR sulfhydryl oxidase, dose response, biochemical, H2O2 detection, luminescence, cherry-pick (AID 493248)
Chain of FAD-linked sulfhydryl oxidase ALR (P55789 whole entry): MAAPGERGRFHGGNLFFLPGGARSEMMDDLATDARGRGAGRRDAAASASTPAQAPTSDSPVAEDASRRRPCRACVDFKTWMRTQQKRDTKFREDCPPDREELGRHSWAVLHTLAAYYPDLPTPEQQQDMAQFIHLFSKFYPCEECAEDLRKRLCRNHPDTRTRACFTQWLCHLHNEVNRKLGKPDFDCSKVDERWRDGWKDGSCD

[7] = HEp-2 cell cytotoxicity, dose response, cytotoxicity control for RSV inhibitor project, HTS (AID 2410); type: functional; settings: human respiratory syncytial virus
[8] = Luminescence Cell-Based Dose Retest to Confirm Inhibitors of Cancer Stem Cells. [Related pubchem assays (depositor defined):AID2717, AID2721]; type: functional, Homo sapiens; settings: Homo sapiens
[9] = test system: Streptococcus sp. 'group A'; assay: growth inhibition of control SK(-) GAS strain, dose response, counter-screen for streptokinase expression inhibitor project, luminescence, kanamycin, BacTiterGlo, confirmation (AID 1900); type: functional, organism-based; settings: Streptococcus sp. 'group A'
Streptokinase A = target: T2, Streptokinase A (Streptococcus pyogenes serotype M1, UniProt P10520); assay: S. pyogenes streptokinase expression inhibitors, potency, dose response, plasminogen activation absorbance, OD405 (AID 1914); type: functional, Streptococcus pyogenes M1 GAS;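 note: secreted streptokinase activity via plasminogen activation per viability signal from cell pellet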
T2 sequence (P10520 whole entry): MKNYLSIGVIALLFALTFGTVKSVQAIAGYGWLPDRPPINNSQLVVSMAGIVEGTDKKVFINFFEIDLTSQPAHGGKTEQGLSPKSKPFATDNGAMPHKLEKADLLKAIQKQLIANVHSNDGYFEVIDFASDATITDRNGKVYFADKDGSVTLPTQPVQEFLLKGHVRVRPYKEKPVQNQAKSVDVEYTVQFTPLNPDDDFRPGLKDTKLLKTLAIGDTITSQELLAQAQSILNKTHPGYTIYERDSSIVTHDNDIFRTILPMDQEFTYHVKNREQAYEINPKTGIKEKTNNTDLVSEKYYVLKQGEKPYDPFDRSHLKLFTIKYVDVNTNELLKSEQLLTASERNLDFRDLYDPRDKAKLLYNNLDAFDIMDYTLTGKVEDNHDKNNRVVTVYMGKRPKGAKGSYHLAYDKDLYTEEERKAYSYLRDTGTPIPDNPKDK

Streptococcus = assay: Group A Streptococcus viability loss, dose response, counter-screen for streptokinase expression inhibitor project, luminescence, BacTiterGlo (AID 1915); type: functional, organism-based; settings: Streptococcus;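 note: potency for reduction of bacterial viability or growth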
INS1 = assay: beta cell apoptosis inhibitors, cytokine rescue, dose response, luminescence, retest (AID 449756); type: functional, cell-based; settings: Rattus norvegicus;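 note: cell death triggered by IL-1 beta plus TNF-alpha plus IFN-gamma mixture; protective hits raise ATP signal compared with cytokine alone wells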
[10] = inhibitors of intracellular T. cruzi replication, confirmation, NIH3T3 host cells, beta-gal luminescence (AID 2044); type: functional, cell-based;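 note: intracellular parasites grown in NIH/3T3 mouse fibroblasts as host cells; luminescent beta-galactosidase reporter signal from transgenic T. cruzi replicating inside host cells; inhibitors lower the luminescence signal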
[11] = cytotoxicity toward NIH3T3 fibroblasts, dose response, counter-screen, cell-based, ATP luminescence, mouse fibroblasts (AID 2010); type: functional; settings: NIH3T3;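 note: cells exposed to compound for about 90 hours before reading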

Compound: O=C(N1CCOCC1)C12CCC3CC(CC(C3)C1)C2
- EC50 [1]: > 195 µM (not active)

Compound: COc1ccc(C)cc1-n1c(SCC(=O)Nc2cccc(C(=O)O)c2)nc2ccccc2c1=O
- EC50 [2]: > 260 µM (inactive)

Compound: CCCNC(=O)Nc1ccc(C)cc1C
- EC50 [2]: > 260 µM (inactive)

Compound: CCN(CC)S(=O)(=O)c1cccc(C(=O)OCC(=O)N2CC(=O)Nc3ccccc32)c1
- EC50 [2]: > 260 µM (inactive)

Compound: O=C(Nc1ccccc1)OCCOc1ccccc1
- EC50 [3]: 30.2 µM (active)
- EC50 (H4): 93.6 µM (active)
- EC50 [1]: > 195 µM (not active)

Compound: Cc1cc(Oc2ccccc2)nc(-c2ccccc2O)n1
- EC50 [4]: > 150 µM (inconclusive)
- EC50 [5]: > 38 µM (not active)

Compound: CCOC(=O)c1cc(CC)sc1NC=C1C(=O)CCCC1=O
- EC50 [1]: > 195 µM (not active)

Compound: Oc1cccc(Nc2ncnc3c2oc2ccccc23)c1
- EC50 [4]: > 160 µM (inactive)
- EC50 [5]: 3.71 µM (active)

Compound: CCc1ccccc1NS(=O)(=O)c1cc2c3c(c1)CCN3C(=O)CC2
- EC50 [2]: > 260 µM (inactive)

Compound: Sc1nnc(Cc2noc3ccccc23)n1-c1ccccc1
- AC50 [6]: 5.61 µM (active)

Compound: COc1ccc(CSC2=NCCN2)cc1Cl
- AC50 [6]: 0.021 µM (active)

Compound: CCCC(NC(=O)COc1cc2c(c3oc(=O)cc(C)c13)CCC(C)(C)O2)C(=O)O (configuration not stated)
- EC50 [1]: > 195 µM (not active)

Compound: CCn1c2ccccc2c2cc(NC(=O)C(C)C)ccc21
- EC50 [4]: 63.3 µM (active)
- EC50 [5]: > 38 µM (not active)

Compound: CCOC(=O)c1nnc2cc(-c3ccc(Br)cc3)nn2c1C
- EC50 [3]: 27.6 µM (active)
- EC50 (H4): 88.8 µM (active)

Compound: COc1ccc(Nc2cccc(Cl)c2)c(C(=O)O)c1
- CC50 [7]: 25.3 µM (active)
- AC50 [6]: 2.02 µM (active)

Compound: CCOc1ccc(S(=O)(=O)N2CCN=C2c2ccccc2)cc1
- AC50 [8]: 3.19 µM (active)

Compound: CSc1nccn1C(=O)c1ccccc1[N+](=O)[O-]
- EC50 [1]: > 195 µM (not active)

Compound: CCN(CC(=O)Nc1cccc(OC)c1)CC(=O)Nc1ccc(Br)c(C)c1
- EC50 [2]: 61.1 µM (active)

Compound: O=C(N/N=C/c1ccccc1O)NC12CC3CC(CC(C3)C1)C2
- EC50 [3]: 28.5 µM (active)
- EC50 [9]: 22.3 µM (active)
- EC50 (H4): > 120 µM (not active)
- EC50 (Streptokinase A): > 150 µM (not active)
- EC50 (Streptococcus): 15.1 µM (active)

Compound: CCN(CC)c1ccc(/C=N/NC(=O)Cc2cccs2)c(O)c1
- AC50 (INS1): 0.916 µM (active)

Compound: N#Cc1cccn1-c1nccs1
- EC50 [1]: > 195 µM (not active)

Compound: Fc1ccc(N/N=C/c2cccnc2)c(F)c1
- EC50 [4]: 16.3 µM (inconclusive)
- EC50 [5]: > 38 µM (not active)

Compound: Cc1ccccc1Nc1ncccc1C(=O)N1CCOCC1
- EC50 [4]: > 160 µM (inactive)
- EC50 [5]: > 38 µM (not active)

Compound: O=C(O)c1ccc(N/N=C/c2cn(-c3ccccc3)nc2-c2cccs2)cc1
- AC50 [6]: 3.74 µM (active)

Compound: CN1/C(=C\P(=O)(N(C)C)N(C)C)C(C)(C)c2ccccc21
- EC50 [10]: 2.96 µM (active)
- EC50 [11]: > 60 µM (not active)
- AC50 (INS1): 4.32 µM (active)

Compound: CCn1cc(C(=O)c2ccccc2)c2ccccc21
- EC50 [4]: > 160 µM (inactive)
- EC50 [5]: 3.63 µM (active)

Compound: O=c1c2c3c(sc2nc(NCCOCCO)n1Cc1ccco1)CCCCC3
- EC50 [1]: > 195 µM (not active)

Compound: Cc1cc(Nc2cccc(Cl)c2)nc(-c2ccccc2O)n1
- EC50 [1]: > 195 µM (not active)

Compound: O=C(Nc1ccc(S(=O)(=O)N2CCCCC2)cc1)C1CCN(C(=O)c2ccco2)CC1
- EC50 [2]: > 260 µM (inactive)

Compound: COc1cc(OC)c2ccc(=O)oc2c1C(CCN1CCCC1)c1ccc(N(C)C)cc1 (configuration not stated)
- AC50 [6]: 3.33 µM (active)

Compound: Cc1ccc(C(=O)CSc2cnc3ccccc3n2)cc1C
- EC50 [1]: 4.3 µM (active)

Compound: COc1ccccc1Nc1ccc2nonc2c1[N+](=O)[O-]
- EC50 [1]: > 195 µM (not active)

Compound: CCN1CC(CN(C)Cc2nc(COc3ccccc3)no2)CC1=O (configuration not stated)
- EC50 [2]: > 260 µM (inactive)

Compound: CCCCOc1ccc(S(=O)(=O)N2CCN(c3ccc(N4CCN(CC)CC4)nn3)CC2)cc1
- AC50 [8]: < 0.16 µM (active)

Compound: CCCCN(CCCNc1[nH]cnc2ncnc1-2)c1ccccc1
- AC50 [6]: 0.108 µM (active)

Compound: CC(OC(=O)CN1C(=O)c2ccccc2C1=O)C(=O)NC1CCCCC1C (configuration not stated)
- EC50 [1]: > 195 µM (not active)

Compound: COc1cc(NC(=O)Nc2cccc(C(C)=O)c2)cc(OC)c1OC
- AC50 [6]: 1.72 µM (active)

Compound: CCCCn1c(N(CCOC(C)=O)C(C)=O)nc2ccccc21
- EC50 [1]: > 195 µM (not active)

Compound: Nc1ccc(CCc2nc3ccccc3o2)cc1
- AC50 [6]: 1.16 µM (active)

Compound: O=C(CCCc1ccccc1)Nc1ccc2c(c1)OCCO2
- EC50 [2]: 32.2 µM (active)

Compound: COc1ccc(SCC2CN(C)CCC2c2ccc(F)cc2)cc1 (configuration not stated)
- EC50 [2]: > 260 µM (inactive)

Compound: COC(CN(C)C(=O)c1ccc2c(c1)NC(=O)c1ccccc1S2)OC
- EC50 [4]: > 150 µM (inconclusive)
- EC50 [5]: > 38 µM (not active)

Compound: COc1ccc(N2CCN(CC(=O)Nc3ccc(C)cc3)CC2)cc1
- AC50 [6]: 3 µM (active)

Compound: COc1ccccc1-c1nnc(S)n1Cc1ccccc1
- AC50 [6]: 3.09 µM (active)

Compound: Cc1ccccc1Nc1nnc(C)c(O)n1
- EC50 [2]: > 260 µM (inactive)

Compound: COc1cccc(NC(=O)Nc2nnc(Cc3ccccc3F)s2)c1
- EC50 [1]: > 195 µM (not active)

Compound: CCOc1cc(/C=N/NC(=O)c2cccnc2)ccc1OCC(N)=O
- EC50 [4]: > 150 µM (inactive)
- EC50 [5]: > 38 µM (not active)

Compound: N#Cc1c(NC(=O)CSc2nnc(-c3ccccc3)o2)sc2c1CCCC2
- EC50 [2]: > 260 µM (inactive)

Compound: Cn1c(-c2ccsc2)c(-c2cccs2)c2cc(-c3ccc4[nH]ccc4c3)ccc21
- AC50 [8]: 9.76 µM (active)

Compound: Cc1ccc2c(c1)S/C(=C/c1ccc[n+](CCO)c1)N2C
- EC50 [10]: 0.832 µM (active)
- EC50 [11]: > 60 µM (not active)
- AC50 (INS1): 2.98 µM (active)

Compound: CCOC(=O)C1CCN(C(=O)CCS(=O)(=O)c2ccc3c(c2)CC(C)N3C(=O)CC)CC1 (configuration not stated)
- EC50 [1]: > 195 µM (not active)

Compound: CCOC(=O)c1c(NC(=O)c2ccccc2)sc2c(O)c(CN(CC)CC)ccc12
- EC50 [1]: > 195 µM (not active)

Compound: COc1cc2c(cc1OC)CN(c1ccc([N+](=O)[O-])cc1C#N)CC2
- AC50 [6]: > 100 µM (inactive)

Compound: O=C(Nc1cnn(C23CC4CC(CC(C4)C2)C3)c1)c1cc(-c2ccccc2)on1
- EC50 [10]: 1.55 µM (active)
- EC50 [11]: > 60 µM (not active)
- AC50 [8]: 0.296 µM (active)

Compound: COc1ccc(OC)c(CNc2ccc3c(c2)nc(C)n3C)c1
- AC50 [6]: 5.53 µM (active)
